From patent US20030095937A1, “Method for stimulating hair growth by administering vitamin D analogs” (priority 2001, published 2003)

How the values were obtained:
[1] = tested on: human HL60 myeloid leukemia cells; test: Inhibition of clonal growth of HL60 cells; format: cell-based; conditions: effective dose that inhibited 50% clonal growth of human HL60 myeloid leukemia cells
[2] = tested on: MCF-7 breast cancer cells; test: Inhibition of clonal growth of MCF-7 cells; format: cell-based, human; conditions: effective dose that inhibited 50% clonal growth of MCF-7 breast cancer cells
[3] = Calcemic properties: highest dose that would not cause hypercalcemia; format: in vivo, mouse; conditions: identified in previous experiments
Method: (§1) Vitamin D3 analogs were dissolved in absolute ethanol prior to determining the molar concentration as measured by UV absorbance using their molar extinction coefficient at […]. All the analogs were stored at −20° C. in absolute ethanol as stock solutions of 10^−3 mol/liter. The last dilution was made in phosphate buffered saline, prior to administration into mice. Vitamin D3 compounds were always protected from light. The inventors chose the highest dose that would not cause hypercalcemia. These doses, identified in previous experiments, are summarized below in Table 1.

BNX nu/nu mice [4] = test: Hair growth scoring in nude mice; format: in vivo; design: key to Peak Score, Mouse 2: 1: Skin pink, no hair; 2: Skin thick, pigmented, no hair; 3: Skin thick, highly pigmented, no hair; 4: Skin thick, pigmented, scattered hair; 5: Hair 1-10% of area; 6: Hair 10-25% of area; 7: Hair 25-50% of area; 8: Hair 50-75% of area; 9: Hair >75% of area; Hair 100% covered
Method: In the experiments described herein, BNX nu/nu male and female mice at 8 weeks of age were used. In one series of experiments, a total of 3 males were allotted equally within each of the groups consisting of 6 different vitamin D3 compounds, and a control untreated group. In an addition, three male and 3 female mice received EB1089. All of the analogs were injected intraperitoneally (i.p.), three times a week in a volume of 200 μl phosphate buffered saline.
as §1
The inventors developed the following scale for measuring hair growth in BNX mice:
The inventors examined hair growth of nude mice as the mice received diluant (control mice), 1.25(OH)2D3 or one of 6 vitamin D3 analogs. Each group contained three mice. The effect of Vitamin D3 analogs on hair growth of nude mice was systematically assessed on each mouse by giving them scores from a scale of 1-10 (Table1), 3 times a week. The score for hair growth takes in to account the thickness and pigmentation, as both of these characteristics correlate indirectly with induction of anagen, the growth phase of the hair cycle. For example, a score of […] represents skin thickening with heavy pigmentation; this reflects the formation of the hair shaft prior to the protrusion of hair above the skin surface.

BNX nu/nu mice [5] = test: Hair growth scoring in nude mice; format: in vivo; design: key: 1: Skin pink, no hair; 2: Skin thick, pigmented, no hair; 3: Skin thick, highly pigmented, no hair; 4: Skin thick, pigmented, scattered hair; 5: Hair 1-10% of area; 6: Hair 10-25% of area; 7: Hair 25-50% of area; 8: Hair 50-75% of area; 9: Hair >75% of area; Hair 100% covered; conditions: male nude mice, i.p. 3 times a week, at least 35 days, hair score scale 1-10
[6] = tested on: CYP19 gene that encodes the P450 aromatase; test: RT-PCR RNA analysis of skin samples for CYP19 expression; format: in vivo, mice; conditions: skin samples at the highest score of 7, RT-PCR, data not shown
Method: Skin samples from mice were processed as is routinely done in the art. RT-PCR was performed to make cDNA which was examined for expression of CYP19 gene that encodes the P450 aromatase (9).
Skin samples at the highest score of 7 from Ro-25-9022 and control skin sample were processed to extract RNA, cDNA was made and amplified for the expression of CYP19 gene that encodes P450 aromatase.

[7] = male nude mice, i.p. 3 times a week, at least 35 days, hair score scale 1-10
[8] = male nude mice, three mice per group, i.p. 3 times a week, hair score scale 1-10
[9] = female nude mice, i.p. 3 times a week, hair score scale 1-10

Row | Compound | ED50 HL60 [1] | ED50 MCF-7 [2] | NON-HYPERCALCEMIC DOSE [3] | Peak Score, Mouse 1 (BNX nu/nu mice [4]; [7]) | Peak Score, Mouse 2 (BNX nu/nu mice [4]; [7]) | Mean Peak Score (BNX nu/nu mice [4]; [8]) | hair growth score reached, not exceeded (BNX nu/nu mice [4]; nude mice, scored 3 times a week, scale 1-10) | Peak Score, Mouse 3 (BNX nu/nu mice [5]) | timing of first peak of hair growth, females vs males (BNX nu/nu mice [4]; FIG. 3F) | ability to stimulate hair growth in male and female mice (BNX nu/nu mice [4]; both males and females) | latency period to achieve maximal hair growth (BNX nu/nu mice [4]; female nude mice) | Peak Score, Mouse 1 (BNX nu/nu mice [4]; [9]) | Peak Score, Mouse 2 (BNX nu/nu mice [4]; [9]) | Peak Score, Mouse 3 (BNX nu/nu mice [4]; [9]) | Mean Peak Score (BNX nu/nu mice [4]; female nude mice, three mice, i.p. 3 times a week, hair score scale 1-10) | latency period to achieve maximal hair growth (BNX nu/nu mice [4]; male nude mice) | time of second cycle of hair growth from the first cycle (BNX nu/nu mice [4]; nude mice) | expression of CYP19 gene (P450 aromatase) vs control skin sample [6]
1 | C=C1/C(=C\C=C2/CCC[C@]3(C)[C@@H]([C@H](C)CCCC(C)(C)O)CC[C@@H]23)C[C@@H](O)C[C@@H]1O [1,25(OH)2D3, reference compound] | 1 × 10^−8 MOLAR UNITS | 1 × 10^−7 MOLAR UNITS | 0.0626 μg/mouse | 5 (Hair 1-10% of area) | 5 (Hair 1-10% of area) | 4.67 | 5 (Hair 1-10% of area) | 4 | – | – | – | – | – | – | – | – | – | –
2 | C=C1/C(=C\C=C2/CCC[C@]3(C)[C@@H]([C@H](C)/C=C/C=C/C(O)(CC)CC)CC[C@@H]23)C[C@@H](O)C[C@@H]1O [EB1089] | 5 × 10^−11 MOLAR UNITS | – | 0.5 µg/kg | 7 (Hair 25-50% of area) | 8 (Hair 50-75% of area) | 6.33 | – | 4 | first peak of hair growth in females slightly preceded the peak in the males | Both males and females had hair stimulation | about 9 days | 7 (Hair 25-50% of area) | 7 (Hair 25-50% of area) | 7 (Hair 25-50% of area) | 7.00 | about 18 days | about 16 days | –
3 | C=C1/C(=C\C=C2/CCC[C@]3(C)[C@@H]([C@@H](C)OCCCC(O)(CC)CC)CC[C@@H]23)C[C@@H](O)C[C@@H]1O [KH1060, 1α, 25—(OH)2-20-epi-22-oxa-24,26,27-trishomo-vitamin D3] | 1 × 10^−12 MOLAR UNITS | 1 × 10^−10 MOLAR UNITS | 0.0125 μg/mouse | 8 (Hair 50-75% of area) | 6 (Hair 10-25% of area) | 6.67 | – | 6 (Hair 10-25% of area) | – | – | – | – | – | – | – | ~21 days | – | –
4 | C[C@H](C/C=C/C(O)(C(F)(F)F)C(F)(F)F)C1=CCC2/C(=C/C=C3C[C@@H](O)C[C@H](O)C3)CCC[C@]12C (stereo partly shown) [Ro25-9022, 1,25-(OH)2-16-ene-23-yne-26,27-F6-19-nor-D3] | 2 × 10^−10 MOLAR UNITS | 6 × 10^−10 MOLAR UNITS | 0.00125 μg/mouse | 8 (Hair 50-75% of area) | 4 | 6.33 | – | 4 | – | – | – | – | – | – | – | – | – | equivalent expression
5 | C[C@H](CCC(=O)C(C)(C)O)C1=CCC2/C(=C/C=C3C[C@@H](O)C[C@H](O)C3)CCC[C@]12C (stereo partly shown) [Ro26-9114] | 1 × 10^−10 MOLAR UNITS | – | 6 μg/mouse | 8 (Hair 50-75% of area) | 8 (Hair 50-75% of area) | 5.33 | – | 4 | – | – | – | – | – | – | – | about 9 days | about 16 days | –
6 | C[C@]12CCC/C(=C\C=C3C[C@@H](O)C[C@H](O)C3)C1CC[C@@H]2C1(C/C=C/C(O)(C(F)(F)F)C(F)(F)F)CC1 (stereo partly shown) [Ro27-0574] | 2 × 10^−10 MOLAR UNITS | 2 × 10^−9 MOLAR UNITS | – | 8 (Hair 50-75% of area) | 8 (Hair 50-75% of area) | 6.67 | – | 4 | – | – | – | – | – | – | – | – | about 16 days | –
7 | CC(C)(O)CCCC(CCCC(C)(C)O)[C@H]1CCC2/C(=C/C=C3C[C@@H](O)C[C@H](O)C3)CCC[C@@]21C (stereo partly shown) [Ro27-5646] | 2 × 10^−10 MOLAR UNITS | 4 × 10^−10 MOLAR UNITS | 0.01 μg/mouse | 8 (Hair 50-75% of area) | 8 (Hair 50-75% of area) | 7.33 | – | 6 (Hair 10-25% of area) | – | – | – | – | – | – | – | – | – | –
